Each structure is given as a SMILES string.

This experiment deals with T1, M3 muscarinic receptor (hM3) (Homo sapiens, UniProt P20309).
T1 construct: expressed in transfected cells; host or cells: CHO cells, membranes
Nature of the experiment: Radioligand binding assay for muscarinic receptors (Assay Test Procedure B). Conditions: [3H]-NMS displacement, CHO cell membranes expressing hM3. Here is the method:
CHO cell lines stably expressing cloned human hM1, hM2, hM3 and hM4 muscarinic receptor subtypes, respectively, were grown to near confluency in HAM's F-12 media supplemented with 10% FBS and 250 μg/mL Geneticin. The cells were grown in a 5% CO2, 37° C. incubator and lifted with 2 mM EDTA in dPBS. Cells were collected by 5 minute centrifugation at 650×g, and cell pellets were either stored frozen at −80° C. or membranes were prepared immediately for use. For membrane preparation, cell pellets were resuspended in lysis buffer and homogenized with a Polytron PT-2100 tissue disrupter (Kinematica AG; 20 seconds×2 bursts). Crude membranes were centrifuged at 40,000×g for 15 minutes at 4° C. […] The protein concentration of the membrane suspension was determined by the method described in Lowry et al., 1951, Journal of Biochemistry, 193, 265. […]
Radioligand binding assays for cloned human muscarinic receptors were performed in 96-well microtiter plates in a total assay volume of 100 μL. […] Filter plates were rinsed three times with wash buffer (10 mM HEPES) to remove unbound radioactivity. […] The plates were then counted in a PerkinElmer Topcount liquid scintillation counter (PerkinElmer Inc., Wellesley, Mass.). Binding data were analyzed by nonlinear regression analysis with the GraphPad Prism Software package (GraphPad Software, Inc., San Diego, Calif.) using the one-site competition model. […]

T1 sequence (P20309 whole entry): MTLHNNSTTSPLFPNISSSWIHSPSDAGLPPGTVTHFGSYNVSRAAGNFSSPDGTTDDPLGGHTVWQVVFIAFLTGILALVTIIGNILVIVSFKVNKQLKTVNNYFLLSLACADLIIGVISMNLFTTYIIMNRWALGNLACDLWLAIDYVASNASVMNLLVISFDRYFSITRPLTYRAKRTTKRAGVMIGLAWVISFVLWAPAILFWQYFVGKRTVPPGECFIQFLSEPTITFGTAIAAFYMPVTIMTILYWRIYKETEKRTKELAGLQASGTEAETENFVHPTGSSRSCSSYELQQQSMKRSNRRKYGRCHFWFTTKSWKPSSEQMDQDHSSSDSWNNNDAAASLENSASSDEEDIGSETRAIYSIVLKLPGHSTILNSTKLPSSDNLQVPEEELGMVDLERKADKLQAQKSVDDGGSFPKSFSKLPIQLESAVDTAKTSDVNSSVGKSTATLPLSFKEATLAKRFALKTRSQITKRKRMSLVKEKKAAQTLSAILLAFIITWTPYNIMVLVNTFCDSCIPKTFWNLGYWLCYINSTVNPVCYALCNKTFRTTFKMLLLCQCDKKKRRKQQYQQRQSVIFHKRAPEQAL

Consider `NC(=O)C(c1ccccc1)(c1ccccc1)[C@@H]1CCN(CCCCCCCCCNCC(O)c2ccc(O)c3[nH]c(=O)ccc23)C1` (mixture of isomers) [Example 1, 2-((S)-1-{9-[2-Hydroxy-2-(8-hydroxy-2-oxo-1,2-dihydroquinolin-5-yl)ethylamino]-nonyl}pyrrolidin-3-yl)-2,2-diphenylacetamide], for which the inhibitory constant (Ki) is < 0.05 µM.

As usually defined, the Ki is a measure of affinity in units of concentration, obtained from inhibition or displacement. The low end stands for higher affinity, the high end for lower affinity.
